Assay results from article PMC8004729, “Multifunctional Tyrosinase Inhibitor Peptides with Copper Chelating, UV-Absorption and Antioxidant Activities: Kinetic and Docking Studies” (Foods, 2021).
Entries after “also recorded” stand apart in the source; their conditions may differ. Marks after values point to notes of the source that are not given here. Residues, ends and D or L forms follow the SMILES beside them.

How the values were obtained:
Mushroom tyrosinase [1] = molecular target: T1, Mushroom tyrosinase (Agaricus bisporus, UniProt C7FF04); assay: Diphenolase inhibitory activity of tyrosinase (ʟ-DOPA as substrate) and Lineweaver–Burk mode of inhibition; type: biochemical; conditions: diphenolase reaction; for Mode of Inhibition: Lineweaver–Burk plot, [S] 0.125 to 0.5 mM, different peptide concentrations
T1 construct: purchased Sigma-Aldrich
Description: (§1) The monophenolase and diphenolase inhibitory activities of tyrosinase were determined by using ʟ-tyrosine and ʟ-DOPA as substrates, respectively, as previously described. Various concentrations of peptides were tested to determine the IC50 values, i.e., the concentration of peptides required to inhibit half of the tyrosinase activities. The activities of monophenolase and diphenolase reactions were determined through the measurement of the rate of formation of dopachrome in the presence of substrate concentrations, [S] ranging from 0.125 to 0.5 mM. The initial velocity, V of the reaction was determined using the Beer–Lambert law:(1) ΔA=ε l Δc (2) V=ΔC/t=ΔA/ε l t where ΔC/t denotes the rate of change of the solution concentration; ΔA/t denotes the rate of change of absorbance i.e., slope of the reaction; ε denotes the molar extinction coefficient of dopachrome (3700 M^−1 cm^−1) and l denotes the pathlength.
Target sequence in this assay (C7FF04 1-392 limits assumed): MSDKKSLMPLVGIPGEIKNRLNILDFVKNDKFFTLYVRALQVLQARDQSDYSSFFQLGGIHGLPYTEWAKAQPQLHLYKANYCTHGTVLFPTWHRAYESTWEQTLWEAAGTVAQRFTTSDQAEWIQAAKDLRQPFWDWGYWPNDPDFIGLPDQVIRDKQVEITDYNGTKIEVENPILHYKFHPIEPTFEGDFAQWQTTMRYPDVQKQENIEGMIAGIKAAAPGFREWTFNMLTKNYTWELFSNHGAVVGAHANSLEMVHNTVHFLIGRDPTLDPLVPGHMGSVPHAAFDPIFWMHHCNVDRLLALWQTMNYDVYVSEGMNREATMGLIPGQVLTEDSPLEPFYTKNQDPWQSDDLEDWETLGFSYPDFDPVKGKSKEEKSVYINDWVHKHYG

[2] = Copper chelating activity (pyrocatechol violet); conditions: peptide 10 mg/mL, 50 mM sodium acetate buffer pH 6.0, absorbance 632 nm, mean ± standard deviation (n = 3), SD
Description: The copper chelating activity was determined according to Kubglomsong et al.. Briefly, 4 mM of chromogenic reagent, i.e., pyrocatechol violet was prepared in 50 mM sodium acetate buffer (pH 6.0). Then, 10 µL of peptide sample (10 mg/mL), 280 µL sodium acetate buffer, 10 µL CuSO4∙5H2O and lastly 6 µL pyrocatechol violet were added to a 96-well plate. The sample solution was mixed well and the absorbance was measured at 632 nm using a spectrophotometer (Spectramax M5, Molecular Devices, San Jose, CA, USA). Ethylenediaminetetraacetic acid (EDTA) was used as the positive control. The copper chelating activity is calculated as follows:(3) Copper chelating activity %=Acontrol−Asample/Acontrol×100 where Acontrol denotes the absorbance of the system containing sodium acetate buffer, pyrocatechol violet and CuSO4∙5H2O whereas Asample denotes the absorbance of the system containing peptide, sodium acetate buffer, pyrocatechol violet and CuSO4∙5H2O.

[3] = ABTS free radical scavenging assay; conditions: peptide 10 mg/mL; dark, room temperature, 6 min; absorbance 734 nm; mean ± standard deviation (n = 3); SD
Description: The free radical scavenging potential of peptides was measured according to Cai, Luo, Sun and Corke. Briefly, ABTS reagent containing 7 mM ABTS and 2.45 mM ammonium persulfate were incubated in the dark at room temperature for 12–16 h. The reagent was diluted using 80% ethanol to an absorbance of 0.700 ± 0.005 at 734 nm. Then, 195 µL of the diluted ABTS reagent was added to 5 µL of peptide sample (10 mg/mL) and incubated in the dark at room temperature for 6 min. The absorbance of the sample at 734 nm was monitored immediately using a spectrophotometer. Gallic acid was used as the positive control. The ABTS free radical scavenging activity is calculated as follows:(5) ABTS free radical scavenging activity %=Acontrol−Asample/Acontrol×100 where Acontrol denotes the absorbance of the system containing ABTS and water whereas Asample denotes the absorbance of the system containing ABTS and peptide sample.

[4] = Ferric reducing antioxidant power (FRAP) assay; conditions: peptide 10 mg/mL; 37 °C for 1 h; absorbance 593 nm; mean ± standard deviation (n = 3); SD
Description: The reducing potential of peptides was measured according to Benzie and Strain [20]. ferric reducing antioxidant power (FRAP) reagent containing 300 mM acetate buffer (pH 3.6), 10 mM TPTZ prepared in 40 mM HCl and 20 mM FeCl3⸱6H2O in the ratio of 10:1:1 was incubated at 37 °C for 30 min. Then, 200 µL of FRAP reagent was added to 2.7 µL peptide sample (10 mg/mL) in a 96-well plate and mixed well before incubating at 37 °C for 1 h. The absorbance of the sample was then measured spectrophotometrically at 593 nm. Freshly prepared FRAP reagent was used for each run. A standard curve was prepared using FeSO4⸱7H2O at 0–3 mM. The peptide FRAP was expressed in mM FeSO4. Gallic acid was used as the positive control.

[5] = DPPH free radical scavenging assay; conditions: peptide 10 mg/mL; 0.1 mM DPPH in ethanol, 30 °C for 30 min; absorbance 517 nm; mean ± standard deviation (n = 3); SD
Description: The free radical scavenging potential of peptides was measured according to Blois. Briefly, 0.1 mM DPPH stock solution was prepared in ethanol. In a dark setting, 500 µL of DPPH was added to 16.65 µL peptide sample (10 mg/mL) and incubated at 30 °C for 30 min. The absorbance of the mixture was then monitored at 517 nm using a spectrophotometer. Gallic acid was used as the positive control. The DPPH free radical scavenging activity is calculated as follows:(6) DPPH free radical scavenging activity %=Acontrol−Asample/Acontrol×100 where Acontrol denotes the absorbance of the system containing DPPH and ethanol whereas Asample denotes the absorbance of the system containing DPPH and peptide sample.

tyrosinase = molecular target: tyrosinase; set-up: method as in 2 sources, ref 25 = [25]; PMID 10441774; doi:10.1002/(SICI)1099-1573(199908/09)13:5<371::AID-PTR453>3.0.CO;2-L; 25. Lim J.Y. Ishiguro K. Kubo I. Tyrosinase inhibitory p-Coumaric acid from Ginseng leaves Phytother. Res. 1999 13 371 375 10.1002/(SICI)1099-1573(199908/09)13:5<371::AID-PTR453>3.0.CO;2-L 10441774 ||| ref 26 = [26]; PMID 3141207; doi:10.1007/BF01941189; 26. Maddaluno J.F. Faull K.F. Inhibition of mushroom tyrosinase by 3-amino-L-tyrosines: Molecular probing of the active site of the enzyme Experientia 1988 44 885 887 10.1007/BF01941189 3141207; conditions: read-out: IC50 (tyrosinase mixed-type inhibitor); cited from earlier work
Mushroom tyrosinase [6] = molecular target: T1, Mushroom tyrosinase; assay: Monophenolase inhibitory activity of tyrosinase (ʟ-tyrosine as substrate) and Lineweaver–Burk mode of inhibition; type: biochemical; conditions: monophenolase reaction; for Tyrosinase Activity Inhibition (%): substrate ʟ-tyrosine, peptide concentration 10 mg/mL, mean ± standard deviation (n = 3), SD; for Mode of Inhibition: Lineweaver–Burk plot, [S] 0.125 to 0.5 mM, different peptide concentrations
Description: as §1
Target sequence in this assay (C7FF04 1-392): as the sequence (C7FF04 1-392 limits assumed) above

[7] = Sun protection factor (SPF) by UV spectrophotometry, Mansur equation; type: physicochemical; conditions: peptide 10 mg/mL, UVB 290–320 nm absorbance, CF 10, mean ± standard deviation (n = 3), SD
Description: The ability of peptides to absorb light in the UVB region (290–320 nm) was measured according to the methods described by Dutra, Kedor-Hackmann and Santoro [18]. The UV–Vis spectrophotometer was set to scan the peptide samples from 220 to 400 nm with a 5 nm increment. The SPF values of the peptide samples (10 mg/mL) were calculated using the Mansur equation:(4) SPF=CF×∑290320EEλ×Iλ×Absλ where CF denotes correction factor of 10 (for the short pathlength used); EE denotes erythemal effect spectrum; I denotes solar intensity spectrum and Abs denotes the absorbance of sample.

[8] = substrate ʟ-DOPA, peptide concentration 10 mg/mL, mean ± standard deviation (n = 3), SD

Compound | Copper Chelating Activity (%) [2] | Antioxidant Activity ABTS (%) free radical scavenging [3] | Antioxidant Activity FRAP (mM FeSO4) [4] | Tyrosinase Activity Inhibition (%) (Mushroom tyrosinase [6]) | Mode of Inhibition (Mushroom tyrosinase [6]) | SPF [7] | other results
CC(C)C[C@H](NC(=O)[C@H](CO)NC(=O)[C@H](Cc1ccc(O)cc1)NC(=O)CN)C(=O)NCC(=O)N[C@@H](CC(N)=O)C(=O)N[C@@H](Cc1c[nH]c2ccccc12)C(=O)N[C@H](C(=O)N[C@@H](CS)C(=O)N[C@@H](C)C(=O)N[C@@H](C)C(=O)N[C@@H](CCCCN)C(=O)O)C(C)C [DIP1] (H-GYSLGNWVCAAK-OH) | – | – | – | – | – | – | IC50 (Mushroom tyrosinase [1]; substrate ʟ-DOPA, mean ± standard deviation, SD): 3.04 ± 0.39 mM; inhibition at 10000 µg/mL (Mushroom tyrosinase [1]; [8]): 80 ± 2.79%
O=C(O)CN(CCN(CC(=O)O)CC(=O)O)CC(=O)O [EDTA, Ethylenediaminetetraacetic acid, reference compound] | 96.06 ± 0.03^e % | – | – | – | – | – | –
O=C(O)c1cc(O)c(O)c(O)c1 [Gallic acid, reference compound] | – | 83.14 ± 3.02 ^d % | 16.6 ± 0.36 ^c mM FeSO4 | – | – | – | Antioxidant Activity DPPH (%) free radical scavenging [5]: 81.67 ± 0.03 ^b %
O=C(O)/C=C/c1ccc(O)cc1 [p-coumaric acid] | – | – | – | – | – | – | IC50 (tyrosinase): < 0.36 mM
ADHPF [MIP1] | 94.33 ± 0.04 ^e % | 2.90 ± 0.28 ^b % | 0.035 ± 0.004 ^a mM FeSO4 | 35.86 ± 2.26 ^d % | competitive inhibitors | 1.80 ± 0.02 ^b | –
FDKLPGFGD [MIP3] | 94.43 ± 0.46 ^e % | 2.11% | 0.034 ± 0.002 ^a mM FeSO4 | 22.78 ± 1.12 ^b % | mixed-type inhibitor | 1.36 ± 0.02 ^a | –
FMMFESQNKDLLFK [DIP3] | 26.23 ± 1.03 ^c % | 0.99% | – | – | – | 1.98 ± 0.05 ^b | Tyrosinase Activity Inhibition (%) (Mushroom tyrosinase [1]; [8]): 28.95 ± 1.47 ^c %; Mode of Inhibition (Mushroom tyrosinase [1]): uncompetitive inhibitor
HIATNAVLFFGR [DIP2] | 19.13 ± 2.22 ^b % | – | 0.018 ± 0.001 ^a mM FeSO4 | – | – | 6.45 ± 0.40 ^d | Tyrosinase Activity Inhibition (%) (Mushroom tyrosinase [1]; [8]): 17.70 ± 2.66 ^a %; Mode of Inhibition (Mushroom tyrosinase [1]): weaker competitive inhibitor; also recorded: competitive inhibitors
ILELPFASGDLLML [MIP2] | 11.41 ± 0.13 ^a % | 1.44% | – | 17.26 ± 2.10 ^a % | weaker competitive inhibitor; also recorded: competitive inhibitors | 3.12 ± 0.13 ^c | –
